This note sets out measurements from patent publication US20090035313A1, “Compounds” (Pfizer Inc., priority 2003, published 2009).

pIC50: −log10 of the molar value.

In this assay the test system is TNFα release from human peripheral blood mononuclear cells. Nature of the assay: Inhibition of LPS-stimulated TNFα release from human peripheral blood mononuclear cells (TNFα screen, ELISA). Type of assay: cell-based. The settings on record: LPS-stimulated human PBMC, 18 hours incubation, TNFα in supernatant by ELISA. As to the method:
Venous blood is collected from healthy volunteers and the mononuclear cells purified by centrifugation through Histopaque (Ficoll) cushions. TNFα production from these cells is stimulated by addition of lipopolysaccharide. After 18 hours incubation in the presence of LPS, the cell supernatant is removed and the concentration of TNFα in the supernatant determined by ELISA.

Compound `COc1ccc2cccnc2c1S(=O)(=O)N[C@H]1CC[C@@H](NC(=O)c2cccnc2OC2CCSCC2)CC1` [Example 29, Syn-N-[4-(7-methoxy-quinoline-8-sulfonylamino)-cyclohexyl]-2-(tetrahydro-thiopyran-4-yloxy)-nicotinamide] had a pIC50 of 9.40.
